Reference: patent publication US20160129070A1, “Glutathione Disulfide Compositions and Related Methods for the Treatment of Cancer” (South Dakota Board of Regents, priority 2014, published 2016)

System: B16-F10 cells lung metastasis
Experiment: Murine lung metastasis assay, B16-F10 cells injected through a tail vein
Assay type: in vivo, mice
Settings: no pretreatment of cells; 50 mg/kg i.p. daily for 5 days; day 21
From the text: Mice were housed four in a cage and received food and water ad libitum. All mice were used at approximately 7-10 weeks of age and given at least one week break after arrival. All experimental protocols were approved by the Institutional Animal Care and Use Committee. Procedures for murine lung metastasis assays reported previously were followed with minor modification [Bezault, J., Bhimani, R., Wiprovnick, J., and Furmanski, P. (1994) Cancer Res 54, 2310-2312; Kalland, T. (1986) Cancer Res 46, 3018-3022; Schultz, R. M., Silberman, S., Persky, B., Bajkowski, A. S., and Carmichael, D. F. (1988) Cancer Res 48, 5539-5545]. Mice were divided into 7 mice per group for treatment. B16-F10 cells were grown and maintained as monolayers in RPMI 1640 medium supplemented with 10% FBS and 1% penicillin/streptomycin in 5% CO2 at 37° C. The cells were then subjected to FBS starvation in RPMI 1640 medium without FBS for 24 h. Cells were harvested through trypsinization and adjusted to a density of […] with serum free medium. […] The weight of mice was recorded daily. […] Tumor nodules on lung surface were counted under a magnifier.
FIG. 5 presents the representative photographs of the lungs dissected from mice with different treatments. […] The effect was further confirmed by the metastatic tumors counted under a magnifier (Table 3). […]

CN(C)/N=N/c1[nH]cnc1C(N)=O [Dacarbazine]
Number of metastatic tumors in murine lungs, Average: 0.8 ± 2.0
